Experimental findings from ChEMBL document CHEMBL4765494, “A role of flavonoids in cytochrome c-cardiolipin interactions” (Bioorg Med Chem, 2021) are described below.

Series [1] addresses Cytochrome c (Homo sapiens) (UniProt P99999). The experiment in a line: Inhibition of cytochrome c (unknown origin) assessed as reduction in cyt c-CL complex formation at 10 uM incubated for 15 mins in presence of cardiolipin by Trp-59 fluorescence assay relative to control.
For series [2] the target is unchanged. Briefly: Inhibition of cytochrome c (unknown origin) assessed as reduction in cyt c-CL peroxidase activity at 10 uM up to 20 mins in presence of cardiolipin by Amplex red staining based fluorescence assay relative to control. As to conditions: time min <=20.
For series [3] the target is unchanged. Briefly: Inhibition of cytochrome c (unknown origin) assessed as reduction reduction of cyt c from its ferric state to ferrous state at 10 uM incubated for 20 mins in presence of cardiolipin by UV-vis Spectrophotometric assay relative to control.
A short description of series [4]: Octanol-water distribution coefficient, log D of the compound at pH 7.4 after 1 hr by UV-VIS spectroscopic analysis. The series is classed as physicochemical.
In series [5] the target is Cytochrome c (Homo sapiens) (UniProt P99999). Briefly: Inhibition of cytochrome c (unknown origin) assessed as reduction reduction of cyt c from its ferric state to ferrous state incubated for 20 mins in presence of cardiolipin by UV-vis Spectrophotometric assay.
Sequence of Cytochrome c (Homo sapiens) (P99999 whole entry): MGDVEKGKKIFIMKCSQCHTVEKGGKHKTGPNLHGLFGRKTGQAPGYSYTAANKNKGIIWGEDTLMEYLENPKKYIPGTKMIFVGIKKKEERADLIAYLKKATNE
For series [6] the target is unchanged. Briefly: Inhibition of cytochrome c (unknown origin) assessed as pseudo first order rate constant.
Series [7] has the same target.
Description: Inhibition of cytochrome c (unknown origin) assessed as half-time reaction

With `COc1ccc(-c2coc3cc(O)cc(O)c3c2=O)cc1` [BIOCHANIN], the values for the inhibition in series [1], in series [2] and in series [3] were 37%, 32% and 23%, respectively. Further, in series [4], the logD at 1 h was found to be 2.82.

With `O=C1c2c(O)cc(O)cc2O[C@H](c2ccc(O)c(O)c2)[C@H]1O` [(+)-TAXIFOLIN], the inhibition stood at 58% in series [1], 67% in series [2] and 36% in series [3]. For the same compound, the K in series [5] was 1 M⁻¹ s⁻¹; in series [6], 0.067 min⁻¹. In series [4], this compound gave a logD at 1 h of 0.67.

Regarding `COc1ccc([C@@H]2CC(=O)c3c(O)cc(O)cc3O2)cc1O` [HESPERETIN], the inhibition was 71% in series [1], 57% in series [2] and 7.8% in series [3]. For the same compound, the K in series [5] turned out to be 0.1 M⁻¹ s⁻¹. The compound further came in with a logD at 1 h in series [4] of 2.22.

Consider `O=c1c(O)c(-c2ccc(O)c(O)c2)oc2cc(O)ccc12` [FISETIN], for which the inhibition came to 85% in series [1], 81% in series [2] and 73% in series [3]. In addition, the K in series [5] was found to be 220 M⁻¹ s⁻¹. In series [4], this compound yielded a logD at 1 h of 2.29.

As for `O=C1C[C@@H](c2ccccc2)Oc2ccccc21`, the inhibition in series [1] came out at 67%; in series [2], 47%; in series [3] it was 12%. Moreover, the logD at 1 h in series [4] amounted to 2.95.

Regarding `O=C1C[C@@H](c2ccc(O)cc2)Oc2cc(O)cc(O)c21` [NARINGENIN], the inhibition in series [1] came to 60%; in series [2], 46%; in series [3], 7.3%. Besides, in series [5], the K amounted to 0.002 M⁻¹ s⁻¹. Moreover, in series [4], the logD at 1 h worked out at 2.35.

As to `O=c1c(-c2ccc(O)cc2)coc2cc(O)cc(O)c12` [GENISTEIN], the inhibition came out at 50% in series [1], 51% in series [2] and 0% in series [3]. The logD at 1 h in series [4] came out at 2.68.

As for `O=c1cc(-c2ccccc2)oc2cc(O)c(O)c(O)c12` [BAICALEIN], the inhibition in series [1] is 91%; in series [2], 71%; in series [3], 79%. This compound also returned a logD at 1 h in series [4] of 2.51.

On to `O=c1c(O)c(-c2ccc(O)cc2)oc2cc(O)cc(O)c12` [KAEMPFEROL], for which the inhibition is 83% in series [1], 70% in series [2] and 83% in series [3]. In addition, the K in series [5] stood at 92 M⁻¹ s⁻¹. Also, in series [4], the log distribution coefficient (logD) at 1 h is 3.39. The same compound registered a T1/2 in series [7] of 1.2 min.

Regarding `C[C@@H]1O[C@@H](O[C@H]2[C@H](Oc3cc(O)c4c(c3)O[C@H](c3ccc(O)cc3)CC4=O)O[C@H](CO)[C@@H](O)[C@@H]2O)[C@H](O)[C@H](O)[C@H]1O` [NARINGIN], the inhibition in series [1] came to 81%; in series [2], 54%; in series [3], 27%. The logD at 1 h in series [4] was -0.87.

Consider `O=c1cc(-c2ccccc2)oc2ccccc12`, for which the inhibition turned out to be 87% in series [1], 50% in series [2] and 0% in series [3].

For `O=c1c(O)c(-c2cc(O)c(O)c(O)c2)oc2cc(O)cc(O)c12` [MYRICETIN], the figures for the inhibition in series [1], in series [2] and in series [3] were 91%, 81% and 90%, respectively. Moreover, in series [5], the K was 1030 M⁻¹ s⁻¹. In series [4], this compound had a logD at 1 h of 0.91. Moreover, in series [7], the T1/2 was 0.08 min.

Regarding `O=c1c(-c2ccc(O)cc2)coc2cc(O)ccc12`, the inhibition in series [2] worked out at 43%; in series [3] it was 5.8%.

For `Oc1cc(O)c2c(c1)O[C@H](c1ccc(O)c(O)c1)[C@@H](O)C2` [CIANIDANOL], the inhibition in series [2] was found to be 90%; in series [3] it was 61%. Moreover, the K was 2 M⁻¹ s⁻¹ in series [5] and 0.13 min⁻¹ in series [6]. The same compound had a logD at 1 h in series [4] of 0.01.

In the case of `C[C@@H]1O[C@@H](OC[C@H]2O[C@@H](Oc3c(-c4ccc(O)c(O)c4)oc4cc(O)cc(O)c4c3=O)[C@H](O)[C@@H](O)[C@@H]2O)[C@H](O)[C@H](O)[C@H]1O` [RUTIN], the inhibition was 66% in series [1], 28% in series [2] and 19% in series [3]. For the same compound, the logD at 1 h in series [4] was -0.67.

Turning to `O=C(O[C@@H]1Cc2c(O)cc(O)cc2O[C@@H]1c1cc(O)c(O)c(O)c1)c1cc(O)c(O)c(O)c1` [EPIGALOCATECHIN GALLATE], the inhibition was 63% in series [1], 50% in series [2] and 62% in series [3]. The logD at 1 h in series [4] was found to be 0.04. For the same compound, in series [7], the T1/2 amounted to 1.3 min.

Turning to `O=c1cc(-c2ccc(O)c(O)c2)oc2cc(O)cc(O)c12` [LUTEOLIN], the inhibition in series [1] came out at 84%; in series [2], 71%; in series [3] it was 32%. For the same compound, the K in series [6] amounted to 0.033 min⁻¹. This compound also displayed a logD at 1 h in series [4] of 2.7. Besides, the T1/2 in series [7] turned out to be 11 min.
